# Like-named read-outs stand apart in the source and are kept apart here.
# Key:
# galectins = conditions: all galectins; cited from earlier work
# galectin-1 = galectin-1 (Homo sapiens, UniProt P09382); experiment: Fluorescence polarization-based galectin inhibition assay; assay type: binding; conditions: 20° C., read-out: Calculated Kd Galectin 1
# Text: (§1) Identification of the substances was made by HRMS (Micromass Q-tof micro) and NMR (Bruker Ultrashield 400 plus, 400 MHz). Chemical shifts are reported downfield from Me4Si using residual […] (7.26 ppm) or CHD2OD (3.35 ppm) as reference. Chemical shifts and coupling constants were obtained from ^1H-NMR and proton resonances were assigned from COSY experiments. Purification was made by RF-HPLC (Beckman, system gold) or flash chromatography, using silica gel (Davisil 35-70 μm, 60 Å). Reactions were followed by TLC (Aluminum sheet, silica gel 60 F254) visualized with UV light, H2SO4 (aq) or an iso-vanillin/H2SO4/EtOH development solution. THF and Et2O were dried over sodium/benzophenone and distilled. CH2Cl2 was dried by molecular sieves (4 Å, 1.6 mm). Other solvents and reagents were commercially available and used without further purifications. Fluorescence polarization experiments were performed on a PolarStar instrument (BMG, Offenburg; Germany). Evaluation of 20-34 as inhibitors of galectins was performed by use of fluorescence polarization as described in the literature (Sorme et al., 2003a, 2004). Galectin concentrations and fluorescent probe choice and concentrations were as described in Cumpstey et al. 2005a, except for galectin-3 for which the probe tdga-probe described in Salomonsson et al. 2010 was used at 20 nM together with galectin-3 at 200 nM concentrations. Each inhibitor was tested in duplicate at several concentrations between 4 and 0.25 μM. All fluorescence polarization experiments were conducted at 20° C., except galectin-7 for which experiments were conducted at 0° C.
# galectin-3 = galectin-3 (Homo sapiens, UniProt P17931); experiment: as above; assay type: binding; conditions: 20° C., tdga-probe 20 nM, galectin-3 200 nM, read-out: Calculated Kd Galectin 3
# Chain of galectin-3 (P17931 whole entry, species assumed): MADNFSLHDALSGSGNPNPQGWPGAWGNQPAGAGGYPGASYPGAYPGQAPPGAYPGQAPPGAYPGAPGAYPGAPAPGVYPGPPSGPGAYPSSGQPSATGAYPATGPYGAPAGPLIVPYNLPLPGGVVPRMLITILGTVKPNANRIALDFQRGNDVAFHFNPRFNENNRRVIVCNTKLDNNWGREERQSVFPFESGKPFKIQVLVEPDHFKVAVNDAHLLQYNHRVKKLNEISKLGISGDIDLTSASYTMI
# Text: as §1
# [1] = molecular target: T1, galectin-4 (C-terminal domain) (Homo sapiens, UniProt P56470); experiment: as above; assay type: binding; conditions: 20° C., read-out: Calculated Kd Galectin 4 (C-terminal domain)
# T1 sequence (P56470 194-323 limits assumed): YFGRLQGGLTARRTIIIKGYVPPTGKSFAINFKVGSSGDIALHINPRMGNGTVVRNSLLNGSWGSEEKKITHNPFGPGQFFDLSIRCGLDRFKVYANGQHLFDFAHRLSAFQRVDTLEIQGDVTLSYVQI
# Text: as §1
# [2] = molecular target: T2, galectin-4 (N-terminal domain) (Homo sapiens, UniProt P56470); experiment: as above; assay type: binding
# T2 sequence (P56470 19-150 limits assumed): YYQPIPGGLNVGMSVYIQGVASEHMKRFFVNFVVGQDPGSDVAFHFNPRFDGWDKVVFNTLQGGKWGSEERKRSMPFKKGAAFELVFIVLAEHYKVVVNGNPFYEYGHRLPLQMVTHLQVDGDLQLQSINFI
# Text: as §1
# galectin-7 = galectin-7 (Homo sapiens, UniProt P47929); experiment: as above; assay type: binding; conditions: 0° C., read-out: Calculated Kd Galectin 7
# Chain of galectin-7 (P47929 whole entry, species assumed): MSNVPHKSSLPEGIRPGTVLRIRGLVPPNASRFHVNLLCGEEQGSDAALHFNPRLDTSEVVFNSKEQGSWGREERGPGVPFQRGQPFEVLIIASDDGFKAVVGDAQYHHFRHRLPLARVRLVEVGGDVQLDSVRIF
# Text: as §1
# [3] = molecular target: T3, galectin-8 (N-terminal domain) (Homo sapiens, UniProt O00214); experiment: as above; assay type: binding; conditions: 20° C., read-out: Calculated Kd Galectin 8 (N-terminal domain)
# T3 sequence (O00214 19-152 limits assumed): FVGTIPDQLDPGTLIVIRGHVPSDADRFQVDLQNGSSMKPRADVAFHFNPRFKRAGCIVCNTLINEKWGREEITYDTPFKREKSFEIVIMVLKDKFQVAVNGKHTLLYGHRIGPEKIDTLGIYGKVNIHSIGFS
# Text: as §1
# [4] = molecular target: galectin-9 (C-terminal domain) (Homo sapiens, UniProt O00182); experiment: as above; assay type: binding; conditions: 20° C., read-out: Calculated Kd Galectin 9 (C-terminal domain)
# Chain of galectin-9 (C-terminal domain) (O00182 227-355 limits assumed, species assumed): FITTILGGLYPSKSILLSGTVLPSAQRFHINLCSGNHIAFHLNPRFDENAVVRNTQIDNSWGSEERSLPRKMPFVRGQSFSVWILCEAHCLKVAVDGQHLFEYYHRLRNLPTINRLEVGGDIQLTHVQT
# Text: as §1
# [5] = molecular target: galectin-9 (N-terminal domain) (Homo sapiens, UniProt O00182); experiment: as above; assay type: binding; conditions: 20° C., read-out: Calculated Kd Galectin 9 (N-terminal domain)
# Chain of galectin-9 (N-terminal domain) (O00182 17-148 limits assumed, species assumed): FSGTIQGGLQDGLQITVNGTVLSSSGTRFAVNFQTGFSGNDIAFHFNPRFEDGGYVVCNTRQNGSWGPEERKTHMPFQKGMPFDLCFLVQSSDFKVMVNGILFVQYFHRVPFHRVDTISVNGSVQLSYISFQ
# Text: as §1
# Chain of galectin-1 (P09382 whole entry, species assumed): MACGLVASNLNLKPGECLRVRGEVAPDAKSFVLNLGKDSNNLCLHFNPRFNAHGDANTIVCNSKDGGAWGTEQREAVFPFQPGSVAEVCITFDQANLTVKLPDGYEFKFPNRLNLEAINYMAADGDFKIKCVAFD
Compound,affinity compared with lactose (galectins),Kd (galectin-1) [µM],Kd (galectin-3) [µM],Kd [1] [µM],Kd [2] [µM],Kd (galectin-7) [µM],Kd [3] [µM],Kd [4] [µM],Kd [5] [µM],Kd (galectins) [µM],"Kd ([2]; fluorescence polarization, 20° C., read-out: Calculated Kd Galectin 4 (N-terminal domain)) [µM]"
O=C[C@H](O)[C@@H](O)[C@@H](O)[C@H](O)CO [D-galactose],50-100 times lower,–,–,–,–,–,–,–,–,–,–
"O=c1oc2ccccc2cc1CO[C@H]1[C@@H](O)[C@@H](CO)O[C@@H](S[C@@H]2O[C@H](CO)[C@H](O)[C@H](OCc3cc4ccccc4oc3=O)[C@H]2O)[C@@H]1O [Compound 20, bis-{3-O-[(2H-1-benzopyran-2-on-3-yl)-methyl]-β-D-galactopyranosyl}sulfane]",–,15.4,0.25,156,49,3.9,11,2.4,1.7,–,–
OC[C@H]1O[C@@H](O[C@H]2[C@H](O)[C@@H](O)C(O)O[C@@H]2CO)[C@H](O)[C@@H](O)[C@H]1O (stereo partly drawn) [lactose],–,–,–,–,–,–,–,–,–,500 to 1000,–
"COc1ccc2cc(CO[C@H]3[C@@H](O)[C@@H](CO)O[C@@H](S[C@@H]4O[C@H](CO)[C@H](O)[C@H](OCc5cc6ccc(OC)cc6oc5=O)[C@H]4O)[C@@H]3O)c(=O)oc2c1 [Compound 22, bis-{3-O-[(7-methoxy-2H-1-benzopyran-2-on-3-yl)-methyl]-β-D-galactopyranosyl}sulfane]",–,9.9,0.89,> 500,–,37,85,~4,13,–,130
